Measurements as given in patent EP3481220B1, “SWEET RAPESEED PROTEIN ISOLATE AND PROCESS FOR OBTAINING IT” (DSM IP Assets B.V., priority 2016, dated 2018).

What was measured:
[1] = Equal sweetness, sensory panel, versus sucrose solutions; format: in vivo; settings: scored against the reference = 50, line scale 0-100
Description: The flavor characteristics can be evaluated by a sensory panel using techniques known in the art. Investigating the effects of flavor, mouthfeel and aftertaste requires an extended evaluation of the products and this was done by using Quantitative Descriptive Analysis (QDA). Therefore, a sensory panel assessed the protein products taking in account Good Sensory Practices. During the QDA measurement the intensities of the attributes were obtained by the Fizz sensory data acquisition system, using unstructured line scales ranging from 0-100. The products were evaluated twice with 11 panel members. The products were given one-by-one to the panel members. The products were given in a white polystyrene cup with a white polystyrene spoon in order to prevent sedimentation during tasting. Data were analyzed using SenPaq (Ql-statistics).
The panelists received a reference sample (2 wt.% rapeseed protein isolate in water) with a potency designated by an arbitrary sweetness value of 50 (middle of the scale), followed by several sucrose solutions coded and balanced with potencies higher than or lower than the reference. Panelists scored for example a sample that is perceived as twice as strong as the reference with a score of 100, half the sweetness was given a value of 25. Scores were gathered by means of FIZZ data acquisition on unstructured line scales ranging from 0-100. The various concentrations of sucrose were first determined by a pretest.
To identify the sweetness character (i.e. initial sweetness, lingering) of 2% rapeseed protein isolate in water compared to sucrose solutions (10 g/l, 20 g/l, 30 g/l, 40 g/l and 50 g/l) the samples were taken into the mouth on instruction of the panel leader. Directly the intensity of the sweetness was scored. After three seconds the sample was swallowed and the intensity was scored again, followed by scoring at 5, 10, 20, 30, 60, 90 and 120 seconds after swallowing. Intensity scores were given on unstructured 0-100 line scales in FIZZ. The samples were evaluated one-by-one in duplicate according to an optimally balanced design. Equal sweetness and sweetness character was assessed by comparing a 2 wt.% aqueous solution of the resultant native rapeseed protein isolate with aqueous sucrose solutions of different strengths at room temperature.

[2] = Conductivity in aqueous solution (conductivity meter); format: physicochemical; settings: aqueous 5 g/l solution; given for comparison

With `OC[C@H]1O[C@@](CO)(O[C@H]2O[C@H](CO)[C@@H](O)[C@H](O)[C@H]2O)[C@@H](O)[C@@H]1O` [Sucrose] the “Relative Sweetness” value ([1]; 10 g/l aqueous solution) was 35, the “Relative Sweetness” value ([1]; 20 g/l aqueous solution) was 49 and the “Relative Sweetness” value ([1]; 30 g/l aqueous solution) was 68. For the same compound, the “Relative Sweetness” value ([1]; 40 g/l aqueous solution) was 70 and the “Relative Sweetness” value ([1]; 50 g/l aqueous solution) was 78.

In the case of `[Cl-].[Na+]` [sodium chloride], the conductivity [2] is reported as “around 9,400 µS/cm”.
